In patent publication US11407744B2, “Compound and pharmaceutical composition comprising same” (AUTOPHAGYSCIENCES INC., priority 2018, dated 2022):

System: LC3-II production in Hep3B cells
Test: Autophagy activation: degree of LC3-II production in Hep3B cells (Western blot band density)
Assay type: cell-based, human
Conditions: 12 hours; for Autophagy-inducing capacity: amount of LC3-II increased by compound treatment relative to that of the Comparative Example (=1)
Method: The degree of autophagy activation of each compound was evaluated by measuring the degree of LC3-II production in Hep3B cells.
Specifically, Hep3B human hepatocytes were cultured in DMEM medium at 37° C. under 5% CO2 atmosphere. The respective cells were dispensed into 6-well plates at a density of 5×10^5 cells/well. These cells were treated with DMSO, the compound prepared in Examples described above, and the compound of Comparative Example, respectively, and then treated in DMEM medium at 37° C. under 5% CO2 atmosphere for 12 hours to induce autophagy. Subsequently, Hep3B cells were lysed with an extraction buffer containing protease inhibitor cocktail (PBS solution containing 0.5% Triton X-100, 1 mM Na3VO4, etc.), and then fragmentation of DNA was performed by sonication. The amount of protein was measured with bovine serum albumin as a protein standard using SMART™ BCA Protein Assay kit from iNtRON Biotechnology. After electrophoresis of 10˜50 μg of total cell protein in 8˜12% (w/v) polyacrylamide gel containing 0.1% SDS, the proteins present in a gel were transferred to PVDF membrane by an electroblotting technique. Then, in order to block non-specific binding, the PVDF membrane was placed in a TBS-tween (tris-buffered saline-tween, Sigma Co.) solution containing 5% non-fat dry milk and reacted at room temperature for 1 hour. The filter was placed in a TBS-tween solution containing a specific antibody against LC3 protein (Cell Signaling), allowed to stand at 4° C. for 12 hours, and then labeled with a secondary antibody labeled with HRP (Horseradish Peroxidase, Sigma Co., Cat No. P0889). Then, bands were measured using ECL (Enhanced Chemiluminescence, Thermo Scientific, Cat No. 34080).
The induction of autophagy can be confirmed by an increase in specific LC3-II molecules. LC3 precursors are usually scattered in the cytoplasm, proteolytically cleaved, and present in the form of LC3-I. When autophagy is activated, the C-terminal glycine is modified to form LC3-II, which migrates to autophagosome and is distributed in puncta form.
The amount of LC3-II increased by the compound treatment was quantified by measuring the band density, and then compared with the amount of LC3-II increased by the treatment of the compound of Comparative Example, and the comparison values are shown in Table 1.

`COc1ccc(-c2ccc(C(=O)NC(C)C)s2)cc1OC` [Comparative Example, 5-(3,4-dimethoxyphenyl)-N-isopropylthiophene-2-carboxamide, reference compound] was tested, and the “increase in LC3-II (induction of autophagy), in words” value was “Hep3B cells induce autophagy” and the Autophagy-inducing capacity was 1.00.
For `COc1cc(-c2ccc(C(=O)NC(C)C)s2)ccc1O` [Example 1, 5-(4-hydroxy-3-methoxyphenyl)-N-isopropylthiophene-2-carboxamide], the Autophagy-inducing capacity was 1.48.
`COc1ccc(-c2ccc(C(=O)NC(C)C)s2)cc1O` [Example 2, 5-(3-hydroxy-4-methoxyphenyl)-N-isopropylthiophene-2-carboxamide] showed an Autophagy-inducing capacity of 1.38.
Compound `CC(C)NC(=O)c1ccc(-c2cccc(O)c2)s1` [Example 4, 5-(3-hydroxyphenyl)-N-isopropylthiophene-2-carboxamide] has an Autophagy-inducing capacity of 1.16.
`CC(C)NC(=O)c1ccc(-c2ccc(O)cc2)s1` [Example 5, 5-(4-hydroxyphenyl)-N-isopropylthiophene-2-carboxamide] was tested, and the Autophagy-inducing capacity was 1.80.
`CC(C)NC(=O)c1ccc(-c2cccnc2)s1` [Example 7, N-isopropyl-5-(pyridin-3-yl)thiophene-2-carboxamide] was tested, and the Autophagy-inducing capacity was 1.24.
`CC(C)NC(=O)c1ccc(-c2ccc3[nH]ccc3c2)s1` [Example 11, 5-(1H-indol-5-yl)-N-isopropylthiophene-2-carboxamide] gave an Autophagy-inducing capacity of 2.13.
For `COc1ccc(-c2ccc(C(=O)NC(C)C)s2)c(OC)n1` [Example 12, 5-(2,6-dimethoxypyridin-3-yl)-N-isopropylthiophene-2-carboxamide], the Autophagy-inducing capacity was 1.19.
`COc1cc(-c2ccc(C(=O)NC(C)C)s2)cnc1N` [Example 14, 5-(6-amino-5-methoxypyridin-3-yl)-N-isopropylthiophene-2-carboxamide] was tested, and the Autophagy-inducing capacity was 1.13.
For `CC(C)NC(=O)c1ccc(-c2cncc3ccccc23)s1` [Example 15, N-isopropyl-5-(isoquinolin-4-yl)thiophene-2-carboxamide], the Autophagy-inducing capacity was 1.50.
For `CC(C)NC(=O)c1ccc(-c2cnc3ccccc3c2)s1` [Example 17, N-isopropyl-5-(quinolin-3-yl)thiophene-2-carboxamide], the Autophagy-inducing capacity was 1.99.
`CC(C)NC(=O)c1ccc(-c2cccc(N)c2)s1` [Example 18, 5-(3-aminophenyl)-N-isopropylthiophene-2-carboxamide] showed an Autophagy-inducing capacity of 1.13.
With `CC(C)NC(=O)c1ccc(-c2ccc(F)c(F)c2)s1` [Example 27, 5-(3,4-difluorophenyl)-N-isopropylthiophene-2-carboxamide] the Autophagy-inducing capacity was 1.01.
With `Cc1cc(C)cc(-c2ccc(C(=O)NC(C)C)s2)c1` [Example 28, 5-(3,5-dimethylphenyl)-N-isopropylthiophene-2-carboxamide] the Autophagy-inducing capacity was 1.60.
With `Cc1cccc(-c2ccc(C(=O)NC(C)C)s2)c1` [Example 30, N-isopropyl-5-m-tolylthiophene-2-carboxamide] the Autophagy-inducing capacity was 1.02.
In the case of `Cc1ccc(-c2ccc(C(=O)NC(C)C)s2)c(C)c1` [Example 31, 5-(2,4-dimethylphenyl)-N-isopropylthiophene-2-carboxamide], the Autophagy-inducing capacity is reported as 1.49.
Compound `Cc1cc(C)cc(-c2ccc(C(=O)Nc3ccccc3)s2)c1` [Example 48, 5-(3,5-dimethylphenyl)-N-phenylthiophene-2-carboxamide] has an Autophagy-inducing capacity of 1.46.
`O=C(Nc1ccccc1)c1ccc(-c2cccnc2)s1` [Example 49, N-phenyl-5-(pyridin-3-yl)thiophene-2-carboxamide] gave an Autophagy-inducing capacity of 1.51.
`O=C(Nc1cccnc1)c1ccc(-c2cccnc2)o1` [Example 58, N,5-di(pyridin-3-yl)furan-2-carboxamide] gave an Autophagy-inducing capacity of 1.10.
`CC(C)NC(=O)c1ccc(-c2cncc3ccccc23)o1` [Example 65, N-isopropyl-5-(isoquinolin-4-yl)furan-2-carboxamide] showed an Autophagy-inducing capacity of 1.66.
Compound `CC(C)OC(=O)c1ccc(-c2cccnc2)s1` [Example 72, isopropyl 5-(pyridin-3-yl)thiophene-2-carboxylate] has an Autophagy-inducing capacity of 1.08.
With `Cc1cc(C)cc(-c2ccc(C(=O)NC(C)C)o2)c1` [Example 85, 5-(3,5-dimethylphenyl)-N-isopropylfuran-2-carboxamide] the Autophagy-inducing capacity was 1.09.
Compound `CCOC(=O)c1ccc(-c2cnc3ccccc3c2)o1` [Example 88, ethyl 5-(quinolin-3-yl)furan-2-carboxylate] has an Autophagy-inducing capacity of 1.02.
`CCOC(=O)c1ccc(-c2ccc(C#N)cc2)o1` [Example 89, ethyl 5-(4-cyanophenyl)furan-2-carboxylate] showed an Autophagy-inducing capacity of 1.64.
`O=C(Nc1cccnc1)c1ccc(-c2cccc(O)c2)o1` [Example 91, 5-(3-hydroxyphenyl)-N-(pyridin-3-yl)furan-2-carboxamide] gave an Autophagy-inducing capacity of 1.33.
For `CCNC(=O)c1cccc(-c2ccc(C(=O)NC(C)C)o2)c1` [Example 92, 5-(3-(ethylcarbamoyl)phenyl)-N-isopropylfuran-2-carboxamide], the Autophagy-inducing capacity was 1.41.
With `CCNC(=O)c1ccc(-c2ccc(C(=O)NC(C)C)o2)cc1` [Example 93, 5-(4-(ethylcarbamoyl)phenyl)-N-isopropylfuran-2-carboxamide] the Autophagy-inducing capacity was 1.19.
`CC(C)NC(=O)c1ccc(-c2ccc(C(=O)NC(C)C)o2)cc1` [Example 94, N-isopropyl-5-(4-(isopropylcarbamoyl)phenyl)furan-2-carboxamide] gave an Autophagy-inducing capacity of 1.17.
